Our source for the Activity values is ChEMBL document CHEMBL4619809, “Chemically Induced Degradation of WEE1 Kinase for Difficult to Treat Diseases” (ACS Med Chem Lett, 2020).

Protein cereblon/Wee1-like protein kinase (Homo sapiens), sequence (P30291 whole entry, looked up): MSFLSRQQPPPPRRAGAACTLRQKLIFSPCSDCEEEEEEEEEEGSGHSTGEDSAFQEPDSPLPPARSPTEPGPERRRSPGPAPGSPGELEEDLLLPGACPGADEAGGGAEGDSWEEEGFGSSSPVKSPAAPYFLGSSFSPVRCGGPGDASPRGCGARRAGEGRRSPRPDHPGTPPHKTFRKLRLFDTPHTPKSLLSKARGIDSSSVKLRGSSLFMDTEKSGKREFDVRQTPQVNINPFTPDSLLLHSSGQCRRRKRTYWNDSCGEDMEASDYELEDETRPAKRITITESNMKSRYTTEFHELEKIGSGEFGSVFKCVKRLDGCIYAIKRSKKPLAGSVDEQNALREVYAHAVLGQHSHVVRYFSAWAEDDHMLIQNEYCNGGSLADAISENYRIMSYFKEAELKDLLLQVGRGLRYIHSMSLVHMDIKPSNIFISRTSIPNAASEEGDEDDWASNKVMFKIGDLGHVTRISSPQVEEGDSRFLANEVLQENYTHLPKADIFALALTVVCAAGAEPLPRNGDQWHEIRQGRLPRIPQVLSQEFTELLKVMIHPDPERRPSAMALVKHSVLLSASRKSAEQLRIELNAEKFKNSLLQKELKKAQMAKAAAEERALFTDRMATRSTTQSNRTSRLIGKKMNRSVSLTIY
Protein cereblon/Wee1-like protein kinase (Homo sapiens), sequence (Q96SW2 whole entry, looked up): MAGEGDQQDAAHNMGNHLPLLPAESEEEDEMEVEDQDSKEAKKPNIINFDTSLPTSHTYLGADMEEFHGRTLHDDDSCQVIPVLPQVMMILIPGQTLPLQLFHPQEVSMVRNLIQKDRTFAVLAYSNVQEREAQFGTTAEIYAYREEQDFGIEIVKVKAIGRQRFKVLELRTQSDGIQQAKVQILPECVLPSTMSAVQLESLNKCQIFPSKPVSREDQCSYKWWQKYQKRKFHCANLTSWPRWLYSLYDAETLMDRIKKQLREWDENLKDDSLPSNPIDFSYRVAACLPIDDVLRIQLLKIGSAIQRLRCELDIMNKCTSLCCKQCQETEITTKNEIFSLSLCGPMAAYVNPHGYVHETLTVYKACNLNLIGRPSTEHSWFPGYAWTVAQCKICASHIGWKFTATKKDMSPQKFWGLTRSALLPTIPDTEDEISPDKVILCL

The assay concerns the target Protein cereblon/Wee1-like protein kinase (Homo sapiens) (UniProt P30291+Q96SW2). The assay is described as follows: Protac activity at CRBN/WEE1 in human MOLT4 cells assessed as induction of degradation of WEE1 at 1 uM incubated for 6 hrs by immunoblot analysis relative to control. The format is cell-based. Particulars: MOLT-4.
Take `C=CCn1c(=O)c2cnc(Nc3ccc(N4CCN(CCCNc5cccc6c5C(=O)N(C5CCC(=O)NC5=O)C6=O)CC4)cc3)nc2n1-c1cccc(C(C)(C)O)n1` (stereo not given): the Activity was more than 50%. Under `C=CCn1c(=O)c2cnc(Nc3ccc(N4CCN(CCCNc5cccc6c5C(=O)N(C5CCC(=O)NC5=O)C6=O)CC4)cc3)nc2n1-c1cccc(C(F)(F)F)n1` (stereo not given) stands more than 50%; under `C=CCn1c(=O)c2cnc(Nc3ccc(N4CCN(C(=O)CCOCCNc5cccc6c5C(=O)N(C5CCC(=O)NC5=O)C6=O)CC4)cc3)nc2n1-c1cccc(C(C)(C)O)n1` (stereo not given), more than 50%; under `C=CCn1c(=O)c2cnc(Nc3ccc(N4CCN(C(=O)CCOCCOCCNc5cccc6c5C(=O)N(C5CCC(=O)NC5=O)C6=O)CC4)cc3)nc2n1-c1cccc(C(C)(C)O)n1` (stereo not given), more than 50%. As for `C=CCn1c(=O)c2cnc(Nc3ccc(N4CCN(C(=O)CCOCCOCCOCCN5CCN(Cc6ccc(COc7cccc8c7CN([C@H]7CCC(=O)NC7=O)C8=O)cc6)CC5)CC4)cc3)nc2n1-c1cccc(C(C)(C)O)n1`, the figure is more than 50%; as for `C=CCn1c(=O)c2cnc(Nc3ccc(N4CCN(CCCNC(=O)CCOCCOCCOCCOCCNc5cccc6c5C(=O)N(C5CCC(=O)NC5=O)C6=O)CC4)cc3)nc2n1-c1cccc(C(C)(C)O)n1` (stereo not given), more than 50%; as for `C=CCn1c(=O)c2cnc(Nc3ccc(N4CCN(CCCNc5cccc6c5C(=O)N(C5CCC(=O)NC5=O)C6=O)CC4)cc3)nc2n1-c1cccc(OC)n1` (stereo not given), more than 50%. As for `C=CCn1c(=O)c2cnc(Nc3ccc(N4CCN(CCCNC(=O)CCOCCOCCNc5cccc6c5C(=O)N(C5CCC(=O)NC5=O)C6=O)CC4)cc3)nc2n1-c1cccc(C(C)(C)O)n1` (stereo not given), the figure is more than 50%; as for `C=CCn1c(=O)c2cnc(Nc3ccc(N4CCN(C(=O)CCOCCOCCNc5cccc6c5C(=O)N(C5CCC(=O)NC5=O)C6)CC4)cc3)nc2n1-c1cccc(C(C)(C)O)n1` (stereo not given), 25 to 50%; as for `C=CCn1c(=O)c2cnc(Nc3ccc(N(C)CCCCNc4cccc5c4C(=O)N(C4CCC(=O)NC4=O)C5=O)cc3)nc2n1-c1cccc(C(C)(C)O)n1` (stereo not given), more than 50%.
